Measured values from patent US20240391912A1, “MORPHIC FORMS OF CFT7455 AND METHODS OF MANUFACTURE THEREOF” (C4 THERAPEUTICS, INC., priority 2022, published 2024).
Values after ≈ are worked out from the molar mass of the structure shown.

Assays:
[1] = Solubility of Compound 5 Form VI and Form VIII at 25° C., equilibration for 24 hours (HPLC; XRPD of residual solids); type: physicochemical
Experimental: 11 mg (for 20 mg/mL target concentration) or 22 mg (for 50-60 mg/mL target concentration) of Compound 5 Form VI and Form VIII (equivalent to 10 mg or 20 mg of anhydrate free base) was weighed into a 4 mL glass vial, respectively. Up to 0.5 mL of potential eluent medium was added. The obtained suspensions/solutions were stirred at 25° C. at 400 rpm for 24 hours and then centrifuged at 25° C. at 14,000 rpm for 5 minutes. The residual solids were characterized by XRPD to determine the physical form. The supernatants (0.1 mL) were evaporated at about 22-25° C./30-60% RH.

[2] = Bulk stability of Compound 5 Form VI and Form VIII at 25° C./60% RH, open container, 1 week (XRPD, HPLC, color); type: physicochemical; conditions: listed as Form VIII
Experimental: Compound 5 Form VI and Form VIII were placed at 25° C./60% RH in an open container over 1 week. Samples after the stress were characterized by XRPD and HPLC and inspected for color change.

[3] = Characterization of polymorphs and pseudo-polymorphs of Compound 5; type: physicochemical
[4] = Approximate solubility of Compound 5 polymorphs in EtOH:DCM (v:v=1:4); type: physicochemical; conditions: EtOH:DCM (v:v = 1:4), 25° C.
Experimental: Four polymorphs (Form V, Form VI, Form VII and Form VIII) were weighed respectively and a suitable amount of solvent mixture EtOH:DCM (v:v=1:4) was added. The obtained samples were stirred at a rate of 400 rpm at 25° C.

[5] = Crystallization of Compound 1 at room temperature by slow evaporation (XRPD); type: physicochemical; conditions: 25° C./92% RH for 2 days
Experimental: About 20 mg of Compound 1 Form I (free form) was dissolved and filtered by 0.45 μm nylon filter. Obtained solutions were evaporated slowly at ambient condition. Solid residues were examined for their polymorphic form.

[6] = Scale-up experiment (200 mg) and characterization of new polymorphs of Compound 1; type: physicochemical; conditions: for X-ray diffraction: 3-40° (2 theta), XRPD method 1; for Thermogravimetry weight loss / water corresponding to TGA weight loss: TGA
Experimental: Scale-up 1: About 200 mg of Compound 1 Form I was dissolved in 10 mL THF/Water (95:5, v:v) at 40° C. […] Compound 1 Form IV was obtained. It was subjected to characterization.
Scale-up 2: About 200 mg of Compound 1 Form I was dissolved in 10 mL THF/Water (95:5, v:v) at 40° C. […] It was subjected to characterization.

[7] = Competitive equilibration experiment of Compound 1 Form I and Form IV for 1 week; type: physicochemical; conditions: for XRPD / form obtained in competitive equilibration: 1 week; for form obtained in competitive equilibration: 25° C.
Experimental: About 10 mg of Compound 1 Form I and 10 mg Compound 1 Form IV were added to 0.8 mL saturated solution in selected solvent. Obtained suspensions were stirred at 400 rpm and 25° C. for 1 week. Solids obtained were separated by filtration and characterized by XRPD.

[8] = test system: OCI-LY10 human DLBCL intracranial xenografts; assay: OCI-LY10 human DLBCL intracranial xenograft study, survival; conditions: for Median Survival (Days), ± SEM / Survival time extension (%): Rituximab, i.v., QW
Experimental: Agents were tested in the OCI-LY10 human DLBCL intracranial model. […] Rituximab was administered from day 1 via i.v. once per week. Rituximab was dosed at 10 and 30 mg/kg. Individual mouse was euthanized once its body weight loss was over 20%.
The cells growing in an exponential growth phase were harvested and counted for tumor inoculation.
99 CB17 SCID mice were inoculated by intracranial injection with OCI-LY10 cells (1×10^6) for tumor development.
Tumor inoculation: Intraperitoneally injected avertin at dosage of 240 mg/kg to anaesthetize the CB17 SCID mice. Fixed the head of the anaesthetized mice to the brain solid positioner, sterilized the head skin with 70% alcohol. […] Punched a hole about 2 mm right of the anterior fontanel and 1 mm ahead the coronal on the skull with a 25 G needle. Cell suspensions were mixed and certain amount was sucked into the 5 μL injector slowly to avoid bubble formation. The cells were swapped around the needle with alcohol to avoid extracranial tumor genesis. The needle was stuck vertically into the formed hold and 5 μL of cell suspension containing 1×10^6 OCI-LY10 cells was slowly injected for over 1 minute. The injector was then held for another 1 minute and then pulled back to decrease the drainage of the cells suspension. The skin was closed with tweezers and then sewed. Meloxicam was then injected 30 min after the surgery at dosage of 5 mg/kg to relieve the pain. The animals were kept under monitoring until they were awake.
Animals were grouped for treatment on day 7 after tumor inoculation.
At the time of routine monitoring, the animals were daily checked for any effects of tumor growth and treatments on normal behavior such as mobility, food and water consumption (by looking only), body weight gain/loss (body weights were measured twice weekly), eye/hair matting and any other abnormal effect as stated in the protocol. Death and observed clinical signs were recorded on the basis of the numbers of animals within each subset.

[9] = THF/water (v:v = 1:2.5), 25° C., 24 hours, target conc. 20 mg/mL, listed as Form VIII

O=C1CCC(N2C(=O)c3cccc4c(Cc5ccc(CN6CCOCC6)cc5)ccc2c34)C(=O)N1 (racemic) [Compound 5 Form VIII]
solubility ([1]; EtOH/DCM (v:v = 1:4), 25° C., 24 hours, target conc. 50-60 mg/mL, LOQ 0.8 μg/mL, listed as Form VIII): 39 mg/mL (≈ 83.1 mM)
physical form after solubility test ([1]; EtOH:DCM (v:v=1:4), 25° C., 24 h): Physical mixture of Form V and Form VI
XRPD of residual solids ([1]; MeOH/DCM (v:v = 1:2), 25° C., 24 hours, target conc. 50-60 mg/mL): Form V
physical form after solubility test ([1]; MeOH:DCM (v:v=1:2) and THF:water (v:v=1:2.5), 25° C., 24 h): converted to Form V
solubility ([1]; THF/IPA (v:v = 1:2), 25° C., 24 hours, target conc. 20 mg/mL, listed as Form VIII): 1 mg/mL (≈ 2.13 mM)
XRPD of residual solids [1, 9]: Form V
solubility [1, 9]: 0.5 mg/mL (≈ 1.06 mM)
physical form after solubility test ([1]; THF:2-propanol (v:v=1:2) and THF:Heptane (v:v=1:2), 25° C., 24 h): converted to Form VI
solubility ([1]; in EtOH/DCM (v:v=1:4), about 25° C., 24 h, listed as Form VIII): ~39 mg/mL (≈ 83.1 mM)
solubility ([1]; in MeOH:DCM (v:v=1:2) and EtOH:DCM (v:v=1:4), 25° C. for 24 h, listed as Form VIII): 30 to 40 mg/mL
bulk stability, physical (form) [2]: converted to Form V
Bulk (HPLC) Purity ([2]; solid state, initial purity 93.1% (Form VI), 95.6% (Form VIII)): 95.6%
Bulk (XRPD) ([2]; solid state): Form V
Dehydration and evaporation of solvent from (by DSC) ([3]; DSC): about 8° C.;
Enthalpy (by DSC) ([3]; DSC, listed as Form VIII): 105 J/g
Melting onset Tonset (by DSC) ([3]; DSC, listed as Form VIII): Tonset 231.4° C.,
Weight loss (by TGA) ([3]; at 200° C.): 4.7% at 200 °C
Residual ion (by IC): Br− ([3]; listed as Form VIII): Br^−: 0.01 equiv.
Residual ion (by IC): Cl− ([3]; listed as Form VIII): Cl^−: 0.005 equiv.;
Residual ion (by IC): Li+ ([3]; listed as Form VIII): Li^+: 0.04 equiv.;
Residual ion (by IC): Na+ ([3]; listed as Form VIII): Na^+: 0.01 equiv.
Approximate solubility (visual appearance) ([4]; concentration 10 mg/mL, listed as Form VIII): Few solids
Approximate solubility (visual appearance) ([4]; concentration 20 mg/mL, listed as Form VIII): Few solids

O=C1CCC(N2C(=O)c3cccc4c(Cc5ccc(CN6CCOCC6)cc5)ccc2c34)C(=O)N1 (racemic) [Compound 5 Form VII]
Residual solvent (by 1H-NMR): NMP ([3]; 2 unknown peaks): 1.6 equiv. NMP;
Approximate solubility (visual appearance) ([4]; concentration 10 mg/mL, listed as Form VII): Suspension
Approximate solubility (visual appearance) ([4]; concentration 20 mg/mL, listed as Form VII): Suspension

O=C1CC[C@H](N2C(=O)c3cccc4c(Cc5ccc(CN6CCOCC6)cc5)ccc2c34)C(=O)N1 [Compound 1 Form II, (S)-3-(6-(4-(morpholinomethyl)benzyl)-2-oxobenzo[cd]indol-1(2H)-yl)piperidine-2,6-dione]
Notes (form stability under humidity) [5]: No form change at 25° C./92% RH
Stoichiometry: MeOH ([6]; 1H-NMR): 1.0 equiv.
Stoichiometry: DCM ([6]; 1H-NMR, listed as Form II): 0.3% DCM and
X-ray diffraction ([6]; listed as Form II): Crystalline
Form change at 25° C./92% RH ([6]; 25° C./92% RH for 2 days): No form change
DSC: Methanol desolvation ([6]; DSC, 10° C./min): at 103.1 °C
Thermogravimetry weight loss ([6]; 10° C./min, at 125° C.): About 7.1%

O=C1CC[C@H](N2C(=O)c3cccc4c(Cc5ccc(CN6CCOCC6)cc5)ccc2c34)C(=O)N1 [Compound 1 Form III, (S)-3-(6-(4-(morpholinomethyl)benzyl)-2-oxobenzo[cd]indol-1(2H)-yl)piperidine-2,6-dione]
X-ray diffraction ([6]; listed as Form III): Crystalline
Thermogravimetry weight loss ([6]; 10° C./min, at 120° C.): About 5.8%
water corresponding to TGA weight loss ([6]; 10° C./min, listed as Form III): 120 °C (1.5 equiv.

O=C1CC[C@H](N2C(=O)c3cccc4c(Cc5ccc(CN6CCOCC6)cc5)ccc2c34)C(=O)N1 [Compound 1 Form IV, (S)-3-(6-(4-(morpholinomethyl)benzyl)-2-oxobenzo[cd]indol-1(2H)-yl)piperidine-2,6-dione]
stability of the form ([7]; THF/water systems with high water activity): stable
X-ray diffraction ([6]; listed as Form IV): Crystalline
Thermogravimetry weight loss ([6]; 10° C./min, at 105° C.): About 1.3%
water corresponding to TGA weight loss ([6]; 10° C./min, listed as Form IV): 105 °C (0.4 equiv.

O=C1CC[C@H](N2C(=O)c3cccc4c(Cc5ccc(CN6CCOCC6)cc5)ccc2c34)C(=O)N1 [Form I + Form IV]
XRPD ([7]; THF/Water (63.9:36.1, v:v), a.w. 1.0, 25° C.): Form IV
XRPD ([7]; THF/Water (86.9:13.1, v:v), a.w. 0.8, 25° C.): Form IV
XRPD ([7]; THF/Water (92.3:7.7, v:v), a.w. 0.6, 25° C.): Form IV
XRPD ([7]; THF/Water (97.0:3.0, v:v), a.w. 0.3, 25° C.): Form I
XRPD ([7]; THF/Water (98.1:1.9, v:v), a.w. 0.2, 25° C.): Form I
XRPD ([7]; THF/Water (99.1:0.9, v:v), a.w. 0.1, 25° C.): Form I

O=C1CC[C@H](N2C(=O)c3cccc4c(Cc5ccc(CN6CCOCC6)cc5)ccc2c34)C(=O)N1 [Form I and Form IV]
form obtained in competitive equilibration ([7]; DMSO/water system, all selected water activity mixtures): physical mixtures of Form I and Form IV
form obtained in competitive equilibration ([7]; THF/water system, a.w.≤0.3): Form I (anhydrate)
form obtained in competitive equilibration ([7]; THF/water system, water activity (a.w.)≥0.6): Form IV (hydrate)

rituximab: CD20 inhibitor; targeted antibody
Median Survival (Days), ± SEM ([8]; 10 mg/kg): 17.00 ± 0.46 days
Survival time extension (%) ([8]; 10 mg/kg): 21.4%
Median Survival (Days), ± SEM ([8]; 30 mg/kg): 16.00 ± 0.94 days
Survival time extension (%) ([8]; 30 mg/kg): 14.3%
extension of survival time ([8]; rituximab 10 mg/kg i.v. once per week, p=0.001): 21.4%
extension of survival time ([8]; rituximab 30 mg/kg i.v. once per week, p=0.085): 14.3%
